Laboratory results published in publication PMC6548501, “Sterol transfer by atypical cholesterol-binding NPC2 proteins in coral-algal symbiosis” (eLife, 2019).

Target: T1, Aiptasia non-canonical NPC2 XM_021052404 (Exaiptasia diaphana, UniProt A0A913XQG8)
T1 construct: expressed in HEK 293T, NPC2 - five-proline linker - crmCherry - 3xHA (C-terminal), lysate, anti-HA pull-down; native protein also precipitated from Aiptasia CC7
T1 sequence (A0A913XQG8 60-190): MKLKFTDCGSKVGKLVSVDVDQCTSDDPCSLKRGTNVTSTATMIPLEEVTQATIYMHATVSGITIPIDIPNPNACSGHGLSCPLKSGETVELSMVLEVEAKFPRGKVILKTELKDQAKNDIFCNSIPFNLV
Assay: immunoprecipitation-lipidomics (mass spectrometry of co-eluted sterols)
Format: binding
Conditions: HEK 293T lysate mixed with Symbiodiniaceae SSB01 homogenate (sterol mixture), pH 7 or pH 5

**Q.** For `CC(C)CCC[C@@H](C)[C@H]1CC[C@H]2[C@@H]3CC=C4C[C@@H](O)CC[C@]4(C)[C@H]3CC[C@]12C` [cholesterol], which “immunoprecipitation-lipidomics (mass spectrometry of co-eluted sterols)” value is on record?
**A.** directly bound to cholesterol and various sterols the way other NPC2 proteins normally do
